Assay results taken from the CheMixHub drug solubility set.

Test: xn = mol fraction of the nth substance listed, in the solute-free solvent

O=C(O)c1cc([N+](=O)[O-])ccc1O + CC#N + O
solubility (g/100 g solution)
Conditions | 278.15 K | 283.15 K | 288.15 K | 293.15 K | 298.15 K | 303.15 K | 308.15 K | 313.15 K | 318.15 K | 323.15 K
x2 = 0.04651 | 0.16 | 0.194 | 0.238 | 0.291 | 0.357 | 0.446 | 0.552 | 0.685 | 0.838 | 1.03
x2 = 0.0989 | 0.399 | 0.59 | 0.782 | 0.967 | 1.18 | 1.42 | 1.71 | 2.02 | 2.34 | 2.73
x2 = 0.1583 | 1.06 | 1.33 | 1.68 | 2.11 | 2.54 | 3.11 | 3.71 | 4.38 | 5.16 | 6.05
x2 = 0.2264 | 2.36 | 2.8 | 3.34 | 4.03 | 4.74 | 5.57 | 6.57 | 7.63 | 8.9 | 10.3
x2 = 0.3051 | 3.97 | 4.82 | 5.77 | 6.86 | 8.19 | 9.58 | 11.1 | 12.7 | 14.5 | 16.6
x2 = 0.397 | 7.03 | 7.9 | 8.98 | 10.4 | 11.9 | 13.8 | 15.9 | 18.1 | 20.2 | 22.5
x2 = 0.506 | 9.09 | 10.3 | 11.8 | 13.6 | 15.5 | 17.5 | 19.6 | 21.8 | 23.9 | 26.2
x2 = 0.6372 | 10.7 | 11.8 | 13.5 | 15.5 | 17.8 | 19.9 | 21.9 | 24.7 | 26.9 | 28.9
x2 = 0.798 | 12 | 13.3 | 15 | 17.2 | 19.5 | 21.5 | 24.3 | 26.8 | 29.3 | 31.8

CCCCOc1ccc(C(=O)CCN2CCCCC2)cc1.Cl + CO + C1CCOC1
solubility (g/100 g solution)
Conditions | 278.15 K | 283.15 K | 288.15 K | 293.15 K | 298.15 K | 303.15 K | 308.15 K | 313.15 K | 318.15 K | 323.15 K
x2 = 0.1 | 3.9 | 4.4 | 4.97 | 5.64 | 6.4 | 7.23 | 8.14 | 9.22 | 10.4 | 11.6
x2 = 0.2 | 7.86 | 8.84 | 9.92 | 11.2 | 12.4 | 13.9 | 15.5 | 17.2 | 19.1 | 21.1
x2 = 0.3 | 12 | 13.4 | 14.9 | 16.6 | 18.4 | 20.5 | 22.6 | 24.9 | 27.4 | 30
x2 = 0.4 | 16.3 | 18.1 | 20.1 | 22.3 | 24.6 | 27 | 29.6 | 32.5 | 35.4 | 38.5
x2 = 0.5 | 20.8 | 23.1 | 25.4 | 28 | 30.6 | 33.5 | 36.5 | 39.6 | 42.8 | 46.2
x2 = 0.6 | 25.5 | 28.2 | 30.8 | 33.7 | 36.7 | 39.8 | 43 | 46.4 | 49.9 | 53.3
x2 = 0.7 | 30.6 | 33.5 | 36.5 | 39.6 | 42.9 | 46.2 | 49.6 | 53 | 56.5 | 59.9
x2 = 0.8 | 35.7 | 38.9 | 42 | 45.4 | 48.7 | 52.1 | 55.5 | 59 | 62.5 | 65.8
x2 = 0.9 | 41.3 | 44.6 | 48 | 51.3 | 54.7 | 58.1 | 61.5 | 64.9 | 68 | 71.3

CC(=O)OC(c1ccccc1)C(Cl)(Cl)Cl (stereo not drawn) + CC(C)O + O
solubility (g/100 g solution)
Conditions | 288.15 K | 293.15 K | 298.15 K | 303.15 K | 308.15 K | 313.15 K | 318.15 K | 323.15 K | 328.15 K
x2 = 0.3 | 0.121 | 0.305 | 0.695 | 1.28 | 1.93 | 2.84 | 3.53 | 4.2 | 4.91
x2 = 0.4 | 0.68 | 1.07 | 1.66 | 2.53 | 3.38 | 4.59 | 5.99 | 7.89 | 10.2
x2 = 0.5 | 1.44 | 1.92 | 2.68 | 3.57 | 4.9 | 6.25 | 8.62 | 11.3 | 15.3
x2 = 0.6 | 2.16 | 2.57 | 3.54 | 4.68 | 6.23 | 7.88 | 10.9 | 14.7 | 19.1
x2 = 0.7 | 2.5 | 3.03 | 4.15 | 5.52 | 7.14 | 9.44 | 12.2 | 16.8 | 21.4
x2 = 0.8 | 2.69 | 3.35 | 4.57 | 6.3 | 7.95 | 10.4 | 13.8 | 18.5 | 23.5
x2 = 0.9 | 2.86 | 3.67 | 5.1 | 6.71 | 8.39 | 10.9 | 14.4 | 19.4 | 25.3
